Source: publication PMC10287566, “Signaling-specific inhibition of the CB1 receptor for cannabis use disorder: phase 1 and phase 2a randomized trials” (Nature Medicine, 2023)

Assays:
Assay in all cases: Eurofins binding screen
Adenosine A1 = Adenosine A1 (Homo sapiens, UniProt P30542)
Adrenergic beta2 = Adrenergic beta2 (Homo sapiens, UniProt P07550)
[1] = target: Calcitonin gene-related peptide CGRP (Homo sapiens, UniProt O60894+Q16602)
Cannabinoid CB2 = Cannabinoid CB2 (Homo sapiens, UniProt P34972)
Chemokines CCR1 = Chemokines CCR1 (Homo sapiens, UniProt P32246)
[2] = target: Cholecystokinin CCK1 (CCKA) (Homo sapiens, UniProt P32238)
Dopamine D3 = Dopamine D3 (Homo sapiens, UniProt P35462)
Dopamine D4.4 = Dopamine D4.4 (Homo sapiens, UniProt P21917)
Galanin GAL2 = Galanin GAL2 (Homo sapiens, UniProt O43603)
Histamine H1 = Histamine H1 (Homo sapiens, UniProt P35367)
Muscarinic M1 = Muscarinic M1 (Homo sapiens, UniProt P11229)
Muscarinic M2 = Muscarinic M2 (Homo sapiens, UniProt P08172)
Muscarinic M3 = Muscarinic M3 (Homo sapiens, UniProt P20309)
Muscarinic M4 = Muscarinic M4 (Homo sapiens, UniProt P08173)
Muscarinic M5 = Muscarinic M5 (Homo sapiens, UniProt P08912)
Neurokinin NK3 = Neurokinin NK3 (Homo sapiens, UniProt P29371)
Neuropeptide Y Y2 = Neuropeptide Y Y2 (Homo sapiens, UniProt P49146)
Opioid delta2 (DOP) = Opioid delta2 (DOP) (Homo sapiens, UniProt P41143)
Opioid kappa (KOP) = settings: 10 µM
Neurotensin NTS1 (NT1) = Neurotensin NTS1 (NT1) (Homo sapiens, UniProt P30989)
Prostanoid EP4 = Prostanoid EP4 (Homo sapiens, UniProt P35408)
Prostanoid IP (PGI2) = Prostanoid IP (PGI2) (Homo sapiens, UniProt P43119)
Purinergic P2Y = settings: 10 µM
[3] = target: Vasoactive intestinal peptide VPAC1 (VIP1) (Homo sapiens, UniProt P32241)
PAC1 - PACAP = PAC1 - PACAP (Homo sapiens, UniProt P41586)
Vasopressin V1a = Vasopressin V1a (Homo sapiens, UniProt P37288)
Serotonin 5-HT1B = settings: 10 µM
Serotonin 5-HT2B = Serotonin 5-HT2B (Homo sapiens, UniProt P41595)
Serotonin 5-HT6 = Serotonin 5-HT6 (Homo sapiens, UniProt P50406)
Serotonin 5-HT7 = Serotonin 5-HT7 (Homo sapiens, UniProt P34969)
Potassium channels KV = settings: 10 µM
Purinergic channels P2X = settings: 10 µM
Dopamine transporter DAT = Dopamine transporter DAT (Homo sapiens, UniProt Q01959)
TNF-alpha = settings: 10 µM
BZD (central) = settings: 10 µM
PPAR gamma = PPAR gamma (Homo sapiens, UniProt P37231)
PXR = PXR (Homo sapiens, UniProt O75469)
[4] = read-out: Percent inhibition of control specific binding

Adrenergic beta2, sequence (P07550 whole entry): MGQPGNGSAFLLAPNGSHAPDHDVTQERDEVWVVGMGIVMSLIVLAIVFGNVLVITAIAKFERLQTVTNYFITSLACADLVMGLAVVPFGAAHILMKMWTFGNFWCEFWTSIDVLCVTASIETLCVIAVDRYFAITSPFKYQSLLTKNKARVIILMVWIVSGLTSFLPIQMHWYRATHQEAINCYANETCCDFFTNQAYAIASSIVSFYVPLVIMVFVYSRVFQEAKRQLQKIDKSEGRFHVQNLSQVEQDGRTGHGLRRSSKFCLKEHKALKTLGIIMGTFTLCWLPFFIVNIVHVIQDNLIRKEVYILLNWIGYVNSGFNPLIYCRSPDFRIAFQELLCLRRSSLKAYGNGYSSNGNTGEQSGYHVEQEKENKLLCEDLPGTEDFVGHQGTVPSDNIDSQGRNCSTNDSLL
Serotonin 5-HT6, sequence (P50406 whole entry): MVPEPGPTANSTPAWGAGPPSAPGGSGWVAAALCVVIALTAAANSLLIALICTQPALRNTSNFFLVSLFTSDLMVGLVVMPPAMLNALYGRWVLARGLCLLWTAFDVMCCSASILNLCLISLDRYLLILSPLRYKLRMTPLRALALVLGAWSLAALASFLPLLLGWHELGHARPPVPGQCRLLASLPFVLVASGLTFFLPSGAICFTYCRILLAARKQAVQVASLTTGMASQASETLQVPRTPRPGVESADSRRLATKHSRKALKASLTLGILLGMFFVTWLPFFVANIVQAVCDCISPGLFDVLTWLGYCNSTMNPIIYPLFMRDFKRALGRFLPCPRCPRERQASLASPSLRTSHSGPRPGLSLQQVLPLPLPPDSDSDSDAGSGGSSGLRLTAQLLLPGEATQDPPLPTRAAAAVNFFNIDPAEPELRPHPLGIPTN
Prostanoid EP4, sequence (P35408 whole entry): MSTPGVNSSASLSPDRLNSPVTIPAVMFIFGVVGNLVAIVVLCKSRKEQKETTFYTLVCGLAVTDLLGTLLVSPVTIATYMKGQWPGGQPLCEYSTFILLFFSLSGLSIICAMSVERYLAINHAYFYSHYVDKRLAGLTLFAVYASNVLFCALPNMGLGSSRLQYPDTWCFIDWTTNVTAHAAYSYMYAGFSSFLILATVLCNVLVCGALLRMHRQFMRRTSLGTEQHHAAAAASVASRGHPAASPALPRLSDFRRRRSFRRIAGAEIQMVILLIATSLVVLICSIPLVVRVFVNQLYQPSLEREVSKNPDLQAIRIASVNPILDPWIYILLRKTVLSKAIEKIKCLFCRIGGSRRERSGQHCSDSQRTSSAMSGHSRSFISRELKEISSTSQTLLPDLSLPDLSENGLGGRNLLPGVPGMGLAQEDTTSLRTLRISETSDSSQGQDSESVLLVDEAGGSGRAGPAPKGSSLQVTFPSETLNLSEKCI
Muscarinic M3, sequence (P20309 whole entry): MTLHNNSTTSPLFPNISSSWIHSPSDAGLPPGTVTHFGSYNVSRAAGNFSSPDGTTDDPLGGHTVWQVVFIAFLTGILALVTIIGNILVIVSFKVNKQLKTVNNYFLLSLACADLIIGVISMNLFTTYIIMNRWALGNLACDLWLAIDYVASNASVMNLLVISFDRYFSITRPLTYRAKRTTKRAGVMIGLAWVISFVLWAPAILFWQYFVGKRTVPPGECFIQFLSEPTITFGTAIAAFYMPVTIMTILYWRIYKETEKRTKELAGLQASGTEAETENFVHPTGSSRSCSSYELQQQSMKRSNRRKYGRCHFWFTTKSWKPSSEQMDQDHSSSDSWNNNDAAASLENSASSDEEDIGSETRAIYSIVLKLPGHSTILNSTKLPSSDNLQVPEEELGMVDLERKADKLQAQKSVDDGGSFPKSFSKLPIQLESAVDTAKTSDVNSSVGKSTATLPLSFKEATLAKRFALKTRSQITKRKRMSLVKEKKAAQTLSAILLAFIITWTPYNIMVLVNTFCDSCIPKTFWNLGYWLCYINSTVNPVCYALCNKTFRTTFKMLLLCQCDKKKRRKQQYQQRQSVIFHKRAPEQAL
Cannabinoid CB2, sequence (P34972 whole entry): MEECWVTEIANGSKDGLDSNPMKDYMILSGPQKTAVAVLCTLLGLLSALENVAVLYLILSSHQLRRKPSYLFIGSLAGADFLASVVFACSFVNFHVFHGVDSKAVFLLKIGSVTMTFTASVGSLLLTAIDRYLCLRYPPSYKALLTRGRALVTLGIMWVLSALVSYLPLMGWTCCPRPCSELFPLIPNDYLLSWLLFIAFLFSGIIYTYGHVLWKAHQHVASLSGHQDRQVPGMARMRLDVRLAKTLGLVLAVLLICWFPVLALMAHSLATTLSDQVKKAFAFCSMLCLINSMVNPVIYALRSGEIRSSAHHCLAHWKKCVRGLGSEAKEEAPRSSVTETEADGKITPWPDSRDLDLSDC
Vasoactive intestinal peptide VPAC1 (VIP1), sequence (P32241 31-457): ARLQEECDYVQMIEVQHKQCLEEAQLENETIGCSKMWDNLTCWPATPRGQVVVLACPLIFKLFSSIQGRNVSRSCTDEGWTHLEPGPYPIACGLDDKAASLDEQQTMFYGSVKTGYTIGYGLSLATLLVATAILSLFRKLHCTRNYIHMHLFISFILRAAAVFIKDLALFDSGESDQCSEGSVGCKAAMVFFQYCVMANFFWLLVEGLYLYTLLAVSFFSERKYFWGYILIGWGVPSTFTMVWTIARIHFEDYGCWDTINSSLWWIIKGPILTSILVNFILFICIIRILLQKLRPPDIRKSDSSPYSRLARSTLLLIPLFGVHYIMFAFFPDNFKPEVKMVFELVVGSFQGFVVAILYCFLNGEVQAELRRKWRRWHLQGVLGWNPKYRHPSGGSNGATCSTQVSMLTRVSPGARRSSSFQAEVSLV
Opioid delta2 (DOP), sequence (P41143 whole entry): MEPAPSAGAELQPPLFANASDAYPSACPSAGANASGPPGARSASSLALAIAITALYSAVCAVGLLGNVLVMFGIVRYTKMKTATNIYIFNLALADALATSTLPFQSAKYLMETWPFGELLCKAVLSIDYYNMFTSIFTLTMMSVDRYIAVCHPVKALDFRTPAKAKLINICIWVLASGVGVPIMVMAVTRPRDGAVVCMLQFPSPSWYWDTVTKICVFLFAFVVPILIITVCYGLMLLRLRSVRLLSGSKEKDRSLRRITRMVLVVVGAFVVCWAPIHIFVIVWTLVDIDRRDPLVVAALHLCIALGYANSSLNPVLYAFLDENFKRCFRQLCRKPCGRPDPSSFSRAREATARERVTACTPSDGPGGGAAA
Neurotensin NTS1 (NT1), sequence (P30989 whole entry): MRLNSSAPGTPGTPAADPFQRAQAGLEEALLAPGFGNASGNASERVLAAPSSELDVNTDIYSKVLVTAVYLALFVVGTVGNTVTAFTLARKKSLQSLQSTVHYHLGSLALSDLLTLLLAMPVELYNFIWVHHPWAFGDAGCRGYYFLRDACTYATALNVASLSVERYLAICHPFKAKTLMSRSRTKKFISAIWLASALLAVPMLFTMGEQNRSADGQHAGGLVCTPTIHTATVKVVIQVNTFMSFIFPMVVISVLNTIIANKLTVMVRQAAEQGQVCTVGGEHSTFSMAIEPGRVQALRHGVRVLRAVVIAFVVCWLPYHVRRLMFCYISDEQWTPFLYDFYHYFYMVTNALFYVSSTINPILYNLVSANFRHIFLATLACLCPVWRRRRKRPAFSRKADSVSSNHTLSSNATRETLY
Muscarinic M5, sequence (P08912 whole entry): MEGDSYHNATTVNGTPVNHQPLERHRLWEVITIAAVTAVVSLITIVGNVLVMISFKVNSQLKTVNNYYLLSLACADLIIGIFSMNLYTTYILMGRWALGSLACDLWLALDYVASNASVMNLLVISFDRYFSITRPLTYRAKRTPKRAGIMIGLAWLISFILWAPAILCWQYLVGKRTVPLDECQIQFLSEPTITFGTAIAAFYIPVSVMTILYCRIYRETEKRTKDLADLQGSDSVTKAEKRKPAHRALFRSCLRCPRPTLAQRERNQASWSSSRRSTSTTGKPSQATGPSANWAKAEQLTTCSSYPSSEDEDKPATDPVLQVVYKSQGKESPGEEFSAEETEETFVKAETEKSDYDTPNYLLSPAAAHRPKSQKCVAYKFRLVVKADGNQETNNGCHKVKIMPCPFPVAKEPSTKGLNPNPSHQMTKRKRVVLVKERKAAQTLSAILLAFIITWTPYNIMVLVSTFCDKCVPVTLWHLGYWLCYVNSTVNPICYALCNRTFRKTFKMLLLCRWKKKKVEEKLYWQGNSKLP
PPAR gamma, sequence (P37231 whole entry): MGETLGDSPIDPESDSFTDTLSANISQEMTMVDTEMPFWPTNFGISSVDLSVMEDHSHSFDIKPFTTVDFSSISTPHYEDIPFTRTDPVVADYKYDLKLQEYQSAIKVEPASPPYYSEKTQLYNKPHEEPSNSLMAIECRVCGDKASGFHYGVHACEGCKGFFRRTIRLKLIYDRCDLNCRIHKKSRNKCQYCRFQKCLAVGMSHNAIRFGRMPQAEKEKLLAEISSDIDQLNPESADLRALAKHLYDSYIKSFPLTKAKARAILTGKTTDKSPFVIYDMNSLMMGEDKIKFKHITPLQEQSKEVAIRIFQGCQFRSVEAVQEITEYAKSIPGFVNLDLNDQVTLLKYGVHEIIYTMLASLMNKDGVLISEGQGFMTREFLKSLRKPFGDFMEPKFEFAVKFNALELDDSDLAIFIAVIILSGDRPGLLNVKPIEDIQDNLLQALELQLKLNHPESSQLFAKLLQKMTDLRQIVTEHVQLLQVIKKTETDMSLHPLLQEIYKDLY
Galanin GAL2, sequence (O43603 whole entry): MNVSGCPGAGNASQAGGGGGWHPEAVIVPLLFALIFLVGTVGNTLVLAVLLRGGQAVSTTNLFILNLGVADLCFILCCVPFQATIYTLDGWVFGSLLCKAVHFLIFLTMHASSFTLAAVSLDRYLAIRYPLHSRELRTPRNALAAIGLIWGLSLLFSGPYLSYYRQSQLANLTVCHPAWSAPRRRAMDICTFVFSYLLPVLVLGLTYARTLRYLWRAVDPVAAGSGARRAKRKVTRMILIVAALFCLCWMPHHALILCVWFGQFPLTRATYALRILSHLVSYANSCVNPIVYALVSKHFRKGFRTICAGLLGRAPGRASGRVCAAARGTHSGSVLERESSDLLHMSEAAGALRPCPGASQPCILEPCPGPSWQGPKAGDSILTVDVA

## COc1ccc(CO[C@H]2CC[C@@]3(C)C(=CC[C@H]4[C@@H]5CC[C@H](C(C)=O)[C@@]5(C)CC[C@@H]43)C2)cc1 [AEF0117, 3β-(4-methoxybenzyloxy)pregn-5-en-20-one]
Adenosine A1; [4]
  inhibition at 10 µM: 14%
Adrenergic beta2; [4]
  inhibition at 10 µM: 4%
[1]; [4]
  inhibition at 10 µM: -21%
Cannabinoid CB2; [4]
  inhibition at 10 µM: -2%
Chemokines CCR1; [4]
  inhibition at 10 µM: 5%
[2]; [4]
  inhibition at 10 µM: -19%
Dopamine D3; [4]
  inhibition at 10 µM: 2%
Dopamine D4.4; [4]
  inhibition at 10 µM: -7%
Galanin GAL2; [4]
  inhibition at 10 µM: -9%
Histamine H1; [4]
  inhibition at 10 µM: 4%
Muscarinic M1; [4]
  inhibition at 10 µM: -14%
Muscarinic M2; [4]
  inhibition at 10 µM: -3%
Muscarinic M3; [4]
  inhibition at 10 µM: -18%
Muscarinic M4; [4]
  inhibition at 10 µM: 0%
Muscarinic M5; [4]
  inhibition at 10 µM: -5%
Neurokinin NK3; [4]
  inhibition at 10 µM: -1%
Neuropeptide Y Y2; [4]
  inhibition at 10 µM: -22%
Opioid delta2 (DOP); [4]
  inhibition at 10 µM: -4%
Opioid kappa (KOP)
  Percent inhibition of control specific binding: 1%
Neurotensin NTS1 (NT1); [4]
  inhibition at 10 µM: -14%
Prostanoid EP4; [4]
  inhibition at 10 µM: 10%
Prostanoid IP (PGI2); [4]
  inhibition at 10 µM: -4%
Purinergic P2Y
  Percent inhibition of control specific binding: 16%
[3]; [4]
  inhibition at 10 µM: -4%
PAC1 - PACAP; [4]
  inhibition at 10 µM: 4%
Vasopressin V1a; [4]
  inhibition at 10 µM: 0%
Serotonin 5-HT1B
  Percent inhibition of control specific binding: -15%
Serotonin 5-HT2B; [4]
  inhibition at 10 µM: -15%
Serotonin 5-HT6; [4]
  inhibition at 10 µM: -2%
Serotonin 5-HT7; [4]
  inhibition at 10 µM: -1%
Potassium channels KV
  Percent inhibition of control specific binding: -5%
Purinergic channels P2X
  Percent inhibition of control specific binding: -29%
Dopamine transporter DAT; [4]
  inhibition at 10 µM: 0%
TNF-alpha
  Percent inhibition of control specific binding: -5%
BZD (central)
  Percent inhibition of control specific binding: 1%
PPAR gamma; [4]
  inhibition at 10 µM: 7%
PXR; [4]
  inhibition at 10 µM: 7%

## CC(=O)[C@H]1CC[C@H]2[C@@H]3CC=C4C[C@@H](O)CC[C@]4(C)[C@H]3CC[C@]12C [pregnenolone, reference compound]
Adenosine A1; 10 µM
  Percent inhibition of control specific binding: -25%
Adrenergic beta2; 10 µM
  Percent inhibition of control specific binding: -5%
[1]; 10 µM
  Percent inhibition of control specific binding: -12%
Cannabinoid CB2; 10 µM
  Percent inhibition of control specific binding: -19%
Chemokines CCR1; 10 µM
  Percent inhibition of control specific binding: -10%
[2]; 10 µM
  Percent inhibition of control specific binding: -30%
Dopamine D3; 10 µM
  Percent inhibition of control specific binding: 11%
Dopamine D4.4; 10 µM
  Percent inhibition of control specific binding: 20%
Galanin GAL2; 10 µM
  Percent inhibition of control specific binding: 1%
Histamine H1; 10 µM
  Percent inhibition of control specific binding: 0%
Muscarinic M1; 10 µM
  Percent inhibition of control specific binding: -14%
Muscarinic M2; 10 µM
  Percent inhibition of control specific binding: -4%
Muscarinic M3; 10 µM
  Percent inhibition of control specific binding: 2%
Muscarinic M4; 10 µM
  Percent inhibition of control specific binding: -4%
Muscarinic M5; 10 µM
  Percent inhibition of control specific binding: 8%
Neurokinin NK3; 10 µM
  Percent inhibition of control specific binding: 11%
Neuropeptide Y Y2; 10 µM
  Percent inhibition of control specific binding: -9%
Opioid delta2 (DOP); 10 µM
  Percent inhibition of control specific binding: 9%
Opioid kappa (KOP)
  Percent inhibition of control specific binding: 38%
Neurotensin NTS1 (NT1); 10 µM
  Percent inhibition of control specific binding: -19%
Prostanoid EP4; 10 µM
  Percent inhibition of control specific binding: 21%
Prostanoid IP (PGI2); 10 µM
  Percent inhibition of control specific binding: -12%
Purinergic P2Y
  Percent inhibition of control specific binding: -3%
[3]; 10 µM
  Percent inhibition of control specific binding: -10%
PAC1 - PACAP; 10 µM
  Percent inhibition of control specific binding: -25%
Vasopressin V1a; 10 µM
  Percent inhibition of control specific binding: 10%
Serotonin 5-HT1B
  Percent inhibition of control specific binding: -28%
Serotonin 5-HT2B; 10 µM
  Percent inhibition of control specific binding: -38%
Serotonin 5-HT6; 10 µM
  Percent inhibition of control specific binding: 5%
Serotonin 5-HT7; 10 µM
  Percent inhibition of control specific binding: 11%
Potassium channels KV
  Percent inhibition of control specific binding: -23%
Purinergic channels P2X
  Percent inhibition of control specific binding: 13%
Dopamine transporter DAT; 10 µM
  Percent inhibition of control specific binding: -12%
TNF-alpha
  Percent inhibition of control specific binding: 4%
BZD (central)
  Percent inhibition of control specific binding: -43%
PPAR gamma; 10 µM
  Percent inhibition of control specific binding: 4%
PXR; 10 µM
  Percent inhibition of control specific binding: 15%
